Key:
Assay type in all cases: cell-based; call rule not given here
D(2) dopamine receptor [1] = biological target: T1, D(2) dopamine receptor (Homo sapiens, UniProt P14416); assay: Antagonist activity at human D2R expressed in CHOK1 cells assessed as inhibition of dopamine-induced beta-arrestin recruitment measured after 120 mins by beta-galactosidase based PathHunter assay
D(2) dopamine receptor [2] = biological target: T1, D(2) dopamine receptor; assay: Agonist activity at human D2R expressed in CHOK1 cells assessed as induction of beta-arrestin recruitment measured after 90 mins by beta-galactosidase based PathHunter assay
D(3) dopamine receptor = D(3) dopamine receptor (Homo sapiens, UniProt P35462); assay: Agonist activity at human D3R expressed in CHOK1 cells assessed as induction of beta-arrestin recruitment measured after 90 mins by beta-galactosidase based PathHunter assay

Compound	IC50 (D(2) dopamine receptor [1]; read-out: IC50)	EC50 (D(2) dopamine receptor [2]; read-out: EC50)	EC50 (D(3) dopamine receptor; read-out: EC50)	also measured
COc1ccc(C(=O)N2CCN(CCOc3ccccc3)CC2)cc1	> 100000 nM	2300 nM		
CCc1ccc(OCCN2CCN(C(=O)c3cc4ccccc4[nH]3)CC2)cc1	> 50000 nM			EC50 (D(2) dopamine receptor [2]): Not Active
CCc1ccc(OCCN2CCN(C(=O)c3ccc(OC)cc3)CC2)cc1	> 50000 nM		2600 nM	EC50 (D(2) dopamine receptor [2]): Not Active
COc1ccc(OCCN2CCN(S(=O)(=O)c3ccc(OC)cc3)CC2)cc1		> 100000 nM		EC50 (D(3) dopamine receptor): Not Active; IC50 (D(2) dopamine receptor [1]): Not Active
CC(C)(C)c1ccc(OCCN2CCN(C(=O)c3cc4ccccc4[nH]3)CC2)cc1	> 100000 nM			EC50 (D(3) dopamine receptor): Not Active; EC50 (D(2) dopamine receptor [2]): Not Active
COc1ccc(OCCN2CCN(C(=O)c3cc4c(OC)cccc4[nH]3)CC2)cc1	> 100000 nM	5200 nM		
COc1ccc(OCCCN2CCN(C(=O)c3cc4ccccc4[nH]3)CC2)cc1				EC50 (D(3) dopamine receptor): Not Active
COc1ccc(OCCN2CCN(C(=O)c3nc4ccccc4[nH]3)CC2)cc1	> 50000 nM		192 nM	EC50 (D(2) dopamine receptor [2]): Not Active
COc1ccc(C(=O)N2CCN(CCOc3cc(OC)cc(OC)c3)CC2)cc1	> 50000 nM			EC50 (D(3) dopamine receptor): Not Active; EC50 (D(2) dopamine receptor [2]): Not Active
COc1ccc(SCCN2CCN(C(=O)c3cc4ccccc4[nH]3)CC2)cc1	> 100000 nM			EC50 (D(3) dopamine receptor): Not Active; EC50 (D(2) dopamine receptor [2]): Not Active
COc1ccc(C(=O)N2CCN(CCOc3ccccc3OC)CC2)cc1			278 nM	
O=C(c1cc2ccc(Cl)cc2[nH]1)N1CCN(CCOc2cccnc2)CC1		183 nM		IC50 (D(2) dopamine receptor [1]): Not Active
COc1ccc(OCCN2CCN(C(=O)c3cc4cnccc4[nH]3)CC2)cc1	> 100000 nM	5500 nM	576 nM	
COc1ccc2cc(C(=O)N3CCN(CCOc4cccnc4)CC3)[nH]c2c1			6.4 nM	
COc1ccc(OCCN(C)CCN(C)C(=O)c2ccc(OC)cc2)cc1				EC50 (D(3) dopamine receptor): Not Active
COc1ccc(OCCN2CCN(C(=O)c3cc4c(C)cccc4[nH]3)CC2)cc1			266 nM	
COc1ccc(OCCN2CCN(C(=O)c3ccc(OC)cc3)C(C)C2)cc1 (centres undefined)	> 100000 nM	4200 nM		
Cc1cc(OCCN2CCN(C(=O)c3cc4ccccc4[nH]3)CC2)ccc1Cl			114 nM	
COc1ccc(OCCC2CCN(C(=O)c3ccc(OC)cc3)CC2)cc1				EC50 (D(3) dopamine receptor): Not Active; IC50 (D(2) dopamine receptor [1]): Not Active; EC50 (D(2) dopamine receptor [2]): Not Active
O=C(c1cc2cc(Cl)ccc2[nH]1)N1CCN(CCOc2cccnc2)CC1		1400 nM		IC50 (D(2) dopamine receptor [1]): Not Active
COc1ccc(OCCN2CCN(C(=O)c3cc4ccc(Cl)cc4[nH]3)CC2)cc1			225 nM	
Cc1c(C(=O)N2CCN(CCOc3cccnc3)CC2)[nH]c2ccccc12			80 nM	

Compound	IC50 (D(2) dopamine receptor [1]; read-out: IC50)	EC50 (D(2) dopamine receptor [2]; read-out: EC50)	EC50 (D(3) dopamine receptor; read-out: EC50)	also measured
COc1ccc(OCCN2CCN(C(=O)c3cc4ccc(C)cc4[nH]3)CC2)cc1		1100 nM	130 nM	IC50 (D(2) dopamine receptor [1]): Not Active
Cc1cccc2cc(C(=O)N3CCN(CCOc4cccnc4)CC3)[nH]c12			25.7 nM	
O=C(c1cc2ccccc2s1)N1CCN(CCOc2cccnc2)CC1			13.3 nM	
COc1ccc(OCCN2CCN(CC(=O)c3cc4ccccc4[nH]3)CC2)cc1				EC50 (D(3) dopamine receptor): Not Active; IC50 (D(2) dopamine receptor [1]): Not Active; EC50 (D(2) dopamine receptor [2]): Not Active
COc1ccc(N(C)CCN2CCN(C(=O)c3cc4ccccc4[nH]3)CC2)cc1	> 100000 nM			EC50 (D(2) dopamine receptor [2]): Not Active
COc1cccc(OCCN2CCN(C(=O)c3nc4ccccc4[nH]3)CC2)c1			285 nM	
COc1ccc(OCCN2CCN(C(=O)c3cc4cccnc4[nH]3)CC2)cc1			167 nM	
COc1ccc(OCCN2CCN(C(=O)c3ccccc3)CC2)cc1	> 50000 nM		548 nM	EC50 (D(2) dopamine receptor [2]): Not Active
COc1cccc(OCCN2CCN(C(=O)c3cc4ccccc4[nH]3)CC2)c1			33.8 nM	
O=C(c1cc2c(Cl)cccc2[nH]1)N1CCN(CCOc2cccnc2)CC1		217 nM		IC50 (D(2) dopamine receptor [1]): Not Active
COc1ccc(OCCN2CCN(C(=O)c3ccc4[nH]ccc4c3)CC2)cc1	4600 nM	2500 nM		
COc1ccc(OCCN2CCN(C(=O)c3cc4ccccc4s3)CC2)cc1			3300 nM	
COc1ccc(OCCN2CCN(C(=O)c3cc4c(Cl)cccc4[nH]3)CC2)cc1	> 100000 nM	7100 nM	160 nM	
COc1ccc(OCCN2CCN(C(=O)c3ccncc3)CC2)cc1			22000 nM	IC50 (D(2) dopamine receptor [1]): Not Active; EC50 (D(2) dopamine receptor [2]): Not Active
COc1ccc(OCCN2CCN(C(=O)c3cc4cc(C)ccc4[nH]3)CC2)cc1	> 100000 nM	> 50000 nM	611 nM	
O=C(c1cc2ccccc2[nH]1)N1CCN(CCOc2ccc([N+](=O)[O-])cc2)CC1				IC50 (D(2) dopamine receptor [1]): Not Active; EC50 (D(2) dopamine receptor [2]): Not Active
O=C(c1cc2cccc(Cl)c2[nH]1)N1CCN(CCOc2cccnc2)CC1		617 nM		IC50 (D(2) dopamine receptor [1]): Not Active
COc1ccc(OCCN2CCN(C(=O)c3cc4ncccc4[nH]3)CC2)cc1		> 100000 nM		IC50 (D(2) dopamine receptor [1]): Not Active
COc1ccc(C(=O)N2CCN(CCOc3ccc(OC(F)(F)F)cc3)CC2)cc1	> 50000 nM			EC50 (D(3) dopamine receptor): Not Active; EC50 (D(2) dopamine receptor [2]): Not Active
COc1ccc(OCCN2CCN(C(=O)c3ccccc3OC)CC2)cc1	> 100000 nM		2500 nM	EC50 (D(2) dopamine receptor [2]): Not Active
COc1ccc(OCCN2CCN(C(=O)c3ccc(OC)cn3)CC2)cc1	> 100000 nM	> 50000 nM	2100 nM	
COc1ccc(OCCN2CCN(C(=O)c3c[nH]c4ccccc34)CC2)cc1			210 nM	

Compound	IC50 (D(2) dopamine receptor [1]; read-out: IC50)	EC50 (D(2) dopamine receptor [2]; read-out: EC50)	EC50 (D(3) dopamine receptor; read-out: EC50)	also measured
O=C(c1n[nH]c2ccccc12)N1CCN(CCOc2cccnc2)CC1		4100 nM		IC50 (D(2) dopamine receptor [1]): Not Active
COc1ccc(OCCN2CCN(C(=O)c3cc4cccc(C)c4[nH]3)CC2)cc1	> 100000 nM	10100 nM	473 nM	
COc1ccc(OCCC2CCN(C(=O)c3cc4ccccc4[nH]3)CC2)cc1				EC50 (D(3) dopamine receptor): Not Active; IC50 (D(2) dopamine receptor [1]): Not Active; EC50 (D(2) dopamine receptor [2]): Not Active
COc1ccc(OCCN2CCN(C(=O)c3cc4cc(Cl)ccc4[nH]3)CC2)cc1				IC50 (D(2) dopamine receptor [1]): Not Active; EC50 (D(2) dopamine receptor [2]): Not Active
COc1ccc(OCCN2CCN(C(=O)c3cc4cccc(OC)c4[nH]3)CC2)cc1	> 10000 nM	6000 nM	980 nM	
O=C(c1cc2ccccc2[nH]1)N1CCN(CCOc2ccc3[nH]ccc3c2)CC1			60.9 nM	
COc1ccc(C(=O)N2CCN(CCOc3cccc(OC)c3)CC2)cc1			98 nM	
O=C(c1cc2ccncc2[nH]1)N1CCN(CCOc2cccnc2)CC1			81 nM	
COc1ccc(OCCN2CCN(c3ccc(OC)cc3)CC2)cc1	> 50000 nM			EC50 (D(3) dopamine receptor): Not Active; EC50 (D(2) dopamine receptor [2]): Not Active
COc1ccc(OCCN2CCN(C(=O)c3[nH]c4ccccc4c3C)CC2)cc1	> 100000 nM	4400 nM	1900 nM	
COc1ccc(C(=O)N2CCN(CCOc3cccnc3)CC2)cc1	> 100000 nM	2900 nM	17 nM	
O=C(c1nc2ccccc2[nH]1)N1CCN(CCOc2cccnc2)CC1		2400 nM		IC50 (D(2) dopamine receptor [1]): Not Active
Cc1cccc2[nH]c(C(=O)N3CCN(CCOc4cccnc4)CC3)cc12		180 nM		IC50 (D(2) dopamine receptor [1]): Not Active
COc1ccc(OCCN2CCN(C(=O)c3cc4ccncc4[nH]3)CC2)cc1	> 100000 nM	7800 nM	810 nM	
COc1ccc(OCCN2CCN(C(=O)c3cccc(OC)c3)CC2)cc1			550 nM	
O=C(c1cc2ccccc2[nH]1)N1CCN(CCOc2ccc3c(c2)OCO3)CC1			290 nM	
COc1ccc(OCCCCN2CCN(C(=O)c3cc4ccccc4[nH]3)CC2)cc1				EC50 (D(3) dopamine receptor): Not Active
O=C(c1cc2ccccc2[nH]1)N1CCN(CCOc2ccc(Br)cc2)CC1	> 100000 nM			EC50 (D(2) dopamine receptor [2]): Not Active
COc1ccc(OCCN2CCN(C(=O)c3cc4cc(OC)ccc4[nH]3)CC2)cc1	> 100000 nM	7800 nM	520 nM	
COc1ccc2[nH]c(C(=O)N3CCN(CCOc4cccnc4)CC3)cc2c1		2600 nM		IC50 (D(2) dopamine receptor [1]): Not Active
COc1ccc(OCC(C)N2CCN(C(=O)c3ccc(OC)cc3)CC2)cc1 (racemic)	> 100000 nM			EC50 (D(2) dopamine receptor [2]): Not Active

Source: ChEMBL document CHEMBL4402608 (J Med Chem, 2020)
